Columns and labels:
[1] = tested on: MDA-MB-468; assay: Cytotoxicity against human MDA-MB-468 cells assessed as growth level at 10 uM after 48 hrs by SRB assay; assay type: functional
[2] = Cytotoxicity against human OVCAR3 cells assessed as growth level at 10 uM after 48 hrs by SRB assay; assay type: functional, OVCAR-3
[3] = tested on: 786-0; assay: Cytotoxicity against human 786-0 cells assessed as growth level at 10 uM after 48 hrs by SRB assay; assay type: functional
[4] = Cytotoxicity against human TK10 cells assessed as growth level at 10 uM after 48 hrs by SRB assay; assay type: functional, TK-10
[5] = tested on: K562; assay: Cytotoxicity against human K562 cells assessed as growth level at 10 uM after 48 hrs by SRB assay; assay type: functional
[6] = tested on: M14; assay: Cytotoxicity against human M14 cells assessed as growth level at 10 uM after 48 hrs by SRB assay; assay type: functional
[7] = Cytotoxicity against human NCI-ADR-RES cells assessed as growth level at 10 uM after 48 hrs by SRB assay; assay type: functional
[8] = Cytotoxicity against human SNB75 cells assessed as growth level at 10 uM after 48 hrs by SRB assay; assay type: functional, SNB-75
[9] = Cytotoxicity against human OVCAR8 cells assessed as growth level at 10 uM after 48 hrs by SRB assay; assay type: functional, OVCAR-8
[10] = Cytotoxicity against human UO31 cells assessed as growth level at 10 uM after 48 hrs by SRB assay; assay type: functional, UO-31
[11] = tested on: Malme-3M; assay: Cytotoxicity against human MALME-3M cells assessed as growth level at 10 uM after 48 hrs by SRB assay; assay type: functional
[12] = tested on: SK-MEL-5; assay: Cytotoxicity against human SK-MEL-5 cells assessed as growth level at 10 uM after 48 hrs by SRB assay; assay type: functional
[13] = Cytotoxicity against human BT549 cells assessed as growth level at 10 uM after 48 hrs by SRB assay; assay type: functional, BT-549
[14] = tested on: NCI-H226; assay: Cytotoxicity against human NCI-H226 cells assessed as growth level at 10 uM after 48 hrs by SRB assay; assay type: functional
[15] = Cytotoxicity against human HCT116 cells assessed as growth level at 10 uM after 48 hrs by SRB assay; assay type: functional, HCT-116
[16] = Cytotoxicity against human HCT15 cells assessed as growth level at 10 uM after 48 hrs by SRB assay; assay type: functional, HCT-15
[17] = tested on: KM12; assay: Cytotoxicity against human KM12 cells assessed as growth level at 10 uM after 48 hrs by SRB assay; assay type: functional
[18] = Cytotoxicity against human RPMI8226 cells assessed as growth level at 10 uM after 48 hrs by SRB assay; assay type: functional, RPMI-8226
[19] = Cytotoxicity against human PC3 cells assessed as growth level at 10 uM after 48 hrs by SRB assay; assay type: functional, PC-3
[20] = tested on: A549; assay: Cytotoxicity against human A549 cells assessed as growth level at 10 uM after 48 hrs by SRB assay; assay type: functional
[21] = Cytotoxicity against human HCC2998 cells assessed as growth level at 10 uM after 48 hrs by SRB assay; assay type: functional, HCC 2998
[22] = Cytotoxicity against human SNB19 cells assessed as growth level at 10 uM after 48 hrs by SRB assay; assay type: functional, SNB-19
[23] = tested on: SK-MEL-28; assay: Cytotoxicity against human SK-MEL-28 cells assessed as growth level at 10 uM after 48 hrs by SRB assay; assay type: functional
[24] = tested on: EKVX; assay: Cytotoxicity against human EKVX cells assessed as growth level at 10 uM after 48 hrs by SRB assay; assay type: functional
[25] = Cytotoxicity against human SF539 cells assessed as growth level at 10 uM after 48 hrs by SRB assay; assay type: functional, SF-539
[26] = tested on: SR; assay: Cytotoxicity against human SR cells assessed as growth level at 10 uM after 48 hrs by SRB assay; assay type: functional
[27] = Cytotoxicity against human Hs578T cells assessed as growth level at 10 uM after 48 hrs by SRB assay; assay type: functional, Hs-578T
[28] = Cytotoxicity against human SF268 cells assessed as growth level at 10 uM after 48 hrs by SRB assay; assay type: functional, SF-268
[29] = Cytotoxicity against human UACC257 cells assessed as growth level at 10 uM after 48 hrs by SRB assay; assay type: functional, UACC-257
[30] = Cytotoxicity against human IGROV1 cells assessed as growth level at 10 uM after 48 hrs by SRB assay; assay type: functional, IGROV-1
[31] = Cytotoxicity against human HOP92 cells assessed as growth level at 10 uM after 48 hrs by SRB assay; assay type: functional, HOP-92
[32] = tested on: MDA-MB-231; assay: Cytotoxicity against human MDA-MB-231 cells assessed as growth level at 10 uM after 48 hrs by SRB assay; assay type: functional
[33] = Cytotoxicity against human RXF393 cells assessed as growth level at 10 uM after 48 hrs by SRB assay; assay type: functional, RXF 393
[34] = Cytotoxicity against human LOXIMVI cells assessed as growth level at 10 uM after 48 hrs by SRB assay; assay type: functional, LOX IMVI
[35] = Cytotoxicity against human HOP62 cells assessed as growth level at 10 uM after 48 hrs by SRB assay; assay type: functional, HOP-62
[36] = Cytotoxicity against human MOLT4 cells assessed as growth level at 10 uM after 48 hrs by SRB assay; assay type: functional, MOLT-4
[37] = tested on: A498; assay: Cytotoxicity against human A498 cells assessed as growth level at 10 uM after 48 hrs by SRB assay; assay type: functional
[38] = tested on: CCRF-CEM; assay: Cytotoxicity against human CCRF-CEM cells assessed as growth level at 10 uM after 48 hrs by SRB assay; assay type: functional
[39] = tested on: U-251; assay: Cytotoxicity against human U251 cells assessed as growth level at 10 uM after 48 hrs by SRB assay; assay type: functional
[40] = Cytotoxicity against human SW620 cells assessed as growth level at 10 uM after 48 hrs by SRB assay; assay type: functional, SW-620
[41] = tested on: SN12C; assay: Cytotoxicity against human SN12C cells assessed as growth level at 10 uM after 48 hrs by SRB assay; assay type: functional
[42] = Cytotoxicity against human SF295 cells assessed as growth level at 10 uM after 48 hrs by SRB assay; assay type: functional, SF-295
[43] = Cytotoxicity against human DU145 cells assessed as growth level at 10 uM after 48 hrs by SRB assay; assay type: functional, DU-145
[44] = Cytotoxicity against human HL-60(TB) cells assessed as growth level at 10 uM after 48 hrs by SRB assay; assay type: functional
[45] = tested on: SK-MEL-2; assay: Cytotoxicity against human SK-MEL-2 cells assessed as growth level at 10 uM after 48 hrs by SRB assay; assay type: functional
[46] = Cytotoxicity against human SKOV3 cells assessed as growth level at 10 uM after 48 hrs by SRB assay; assay type: functional, SK-OV-3
[47] = tested on: MCF7; assay: Cytotoxicity against human MCF7 cells assessed as growth level at 10 uM after 48 hrs by SRB assay; assay type: functional
[48] = tested on: HT-29; assay: Cytotoxicity against human HT-29 cells assessed as growth level at 10 uM after 48 hrs by SRB assay; assay type: functional
[49] = tested on: NCI-H322M; assay: Cytotoxicity against human NCI-H322M cells assessed as growth level at 10 uM after 48 hrs by SRB assay; assay type: functional
[50] = tested on: MDA-MB-435; assay: Cytotoxicity against human MDA-MB-435 cells assessed as growth level at 10 uM after 48 hrs by SRB assay; assay type: functional
[51] = Cytotoxicity against human Caki1 cells assessed as growth level at 10 uM after 48 hrs by SRB assay; assay type: functional, CAKI-1
[52] = tested on: NCI-H460; assay: Cytotoxicity against human NCI-H460 cells assessed as growth level at 10 uM after 48 hrs by SRB assay; assay type: functional
[53] = tested on: NCI-H23; assay: Cytotoxicity against human NCI-H23 cells assessed as growth level at 10 uM after 48 hrs by SRB assay; assay type: functional
[54] = Cytotoxicity against human OVCAR5 cells assessed as growth level at 10 uM after 48 hrs by SRB assay; assay type: functional, OVCAR-5
[55] = Cytotoxicity against human OVCAR4 cells assessed as growth level at 10 uM after 48 hrs by SRB assay; assay type: functional, OVCAR-4
[56] = Cytotoxicity against human UACC62 cells assessed as growth level at 10 uM after 48 hrs by SRB assay; assay type: functional, UACC-62
[57] = Cytotoxicity against human COLO205 cells assessed as growth level at 10 uM after 48 hrs by SRB assay; assay type: functional, COLO 205
[58] = tested on: T47D; assay: Cytotoxicity against human T47D cells assessed as growth level at 10 uM after 48 hrs by SRB assay; assay type: functional
[59] = tested on: ACHN; assay: Cytotoxicity against human ACHN cells assessed as growth level at 10 uM after 48 hrs by SRB assay; assay type: functional
[60] = tested on: NCI-H522; assay: Cytotoxicity against human NCI-H522 cells assessed as growth level at 10 uM after 48 hrs by SRB assay; assay type: functional

C=C1CC[C@@H]2[C@](C)(COC(C)=O)[C@H](OC(C)=O)CC[C@@]2(C)[C@@H]1CC(NC1CC1)C1=CCOC1=O (mixture of isomers)
Activity [1]: 91.77% | Activity [2]: 96.85% | Activity [3]: 107.45% | Activity [4]: 98.64% | Activity [5]: 74.16% | Activity [6]: 93.67% | Activity [7]: 98.35% | Activity [8]: 90.39% | Activity [9]: 105.48% | Activity [10]: 82.44% | Activity [11]: 89.64% | Activity [12]: 96.5% | Activity [13]: 86.41% | Activity [14]: 106.3% | Activity [15]: 88.19% | Activity [16]: 93.63% | Activity [17]: 90.49% | Activity [18]: 70.32% | Activity [19]: 77.06% | Activity [20]: 82.92% | Activity [21]: 102.97% | Activity [22]: 100.97% | Activity [23]: 107.72% | Activity [24]: 86.69% | Activity [25]: 95.4% | Activity [26]: 73.84% | Activity [27]: 110.62% | Activity [28]: 93.53% | Activity [29]: 100.57% | Activity [30]: 96% | Activity [31]: 83.7% | Activity [32]: 100.99% | Activity [33]: 116.59% | Activity [34]: 94% | Activity [35]: 102.23% | Activity [36]: 87.21% | Activity [37]: 102.06% | Activity [38]: 95.35% | Activity [39]: 96.2% | Activity [40]: 115.37% | Activity [41]: 101.14% | Activity [42]: 97.25% | Activity [43]: 98.78% | Activity [44]: 102.95% | Activity [45]: 104.35% | Activity [46]: 102.92% | Activity [47]: 85.36% | Activity [48]: 100.7% | Activity [49]: 98.57% | Activity [50]: 96.33% | Activity [51]: 98.25% | Activity [52]: 105.35% | Activity [53]: 98.94% | Activity [54]: 110.21% | Activity [55]: 101.59% | Activity [56]: 84.5% | Activity [57]: 106.86% | Activity [58]: 79.56% | Activity [59]: 98.37% | Activity [60]: 78.4%

C=C1CC[C@@H]2[C@](C)(COC(C)=O)[C@H](OC(C)=O)CC[C@@]2(C)[C@@H]1CC(NCCCCCCCCCCCCCCCCCC)C1=CCOC1=O (mixture of isomers)
Activity [1]: 99.82% | Activity [2]: 103.35% | Activity [3]: 106.62% | Activity [4]: 102.72% | Activity [5]: 104.45% | Activity [6]: 102.16% | Activity [7]: 101.33% | Activity [8]: 87.94% | Activity [9]: 104.57% | Activity [10]: 88.83% | Activity [11]: 111.94% | Activity [12]: 101.04% | Activity [13]: 106.47% | Activity [14]: 92.06% | Activity [15]: 105.04% | Activity [16]: 117.13% | Activity [17]: 107.75% | Activity [18]: 101.07% | Activity [19]: 89.57% | Activity [20]: 101.56% | Activity [21]: 114% | Activity [22]: 102.65% | Activity [23]: 111.23% | Activity [24]: 111.12% | Activity [25]: 101.6% | Activity [26]: 101.94% | Activity [27]: 103.17% | Activity [28]: 100.29% | Activity [29]: 108.48% | Activity [30]: 110.04% | Activity [31]: 80.59% | Activity [32]: 96.62% | Activity [33]: 109.25% | Activity [34]: 98.11% | Activity [35]: 96.46% | Activity [36]: 95.91% | Activity [37]: 100.06% | Activity [38]: 104.64% | Activity [39]: 101.78% | Activity [40]: 101.13% | Activity [41]: 103.39% | Activity [42]: 112.48% | Activity [43]: 108.9% | Activity [44]: 100.5% | Activity [46]: 102.04% | Activity [47]: 101.73% | Activity [48]: 103.31% | Activity [49]: 102.69% | Activity [50]: 107% | Activity [51]: 97.66% | Activity [52]: 105.91% | Activity [53]: 100.06% | Activity [54]: 108.25% | Activity [55]: 114.35% | Activity [56]: 97.28% | Activity [57]: 103.75% | Activity [58]: 97.23% | Activity [59]: 113.27% | Activity [60]: 98.04%
